We go through one compound from ChEMBL document CHEMBL4706561, “Efficient chemoenzymatic synthesis of fluorinated sialyl Thomsen-Friedenreich antigens and investigation of their characteristics” (Eur J Med Chem, 2020).

For the data set, the target named is T1, Sialidase (Clostridium perfringens, UniProt P10481).
T1 sequence (P10481 whole entry): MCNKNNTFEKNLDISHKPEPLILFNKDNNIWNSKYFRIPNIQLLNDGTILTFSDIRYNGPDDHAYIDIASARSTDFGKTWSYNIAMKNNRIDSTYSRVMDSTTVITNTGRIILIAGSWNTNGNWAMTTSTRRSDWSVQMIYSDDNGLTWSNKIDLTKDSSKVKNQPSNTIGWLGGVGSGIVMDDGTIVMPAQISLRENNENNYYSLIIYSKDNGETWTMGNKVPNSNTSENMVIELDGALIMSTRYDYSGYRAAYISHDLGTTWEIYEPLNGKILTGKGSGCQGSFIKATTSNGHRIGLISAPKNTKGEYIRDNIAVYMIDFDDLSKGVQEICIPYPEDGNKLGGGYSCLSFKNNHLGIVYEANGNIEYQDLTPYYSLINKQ
The data set is described as follows: Stability in D2O assessed as Clostridium perfringens sialidase-mediated hydrolysis by measuring betaKdn formation at 10 mM measured after 12 hrs by 1H NMR spectroscopy. Format: ADME. The conditions noted are these: 10000 µM.

The structures appear in SMILES notation.

Take `CC(=O)N[C@H]1[C@@H](OCCCN=[N+]=[N-])O[C@H](CO)[C@H](O)[C@@H]1O[C@@H]1O[C@H](CF)[C@H](O)[C@H](O[C@]2(C(=O)O)C[C@H](O)[C@@H](O)[C@H]([C@H](O)[C@H](O)CO)O2)[C@H]1O`: the Drug metabolism result is reported as “Metabolite_Notdetected”.
